Test results as given in US20240368120A1 (Terns Pharmaceuticals, Inc., priority 2023, published 2024).

What was measured:
[1] = molecular target: T1, human GLP-1R receptor (Homo sapiens, UniProt P43220); assay: GLP-1R low expression cell assay (cAMP TR-FRET, CHO-K1_hGLP-1Rlow_clone10 cells); format: cell-based; conditions: for EC50: cAMP TR-FRET, 30 min at 25° C.; for Emax: maximum activation relative to control GLP-1 peptide agonist
T1 construct: expressed in transfected cells
Method in brief: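 Readout is cAMP TR-FRET after 30 min compound stimulation at 25 °C of a low-GLP-1R-expressing CHO-K1 clone (1,000 cells/well), with 10-point 3-fold serial dilutions. Percent activation versus a control GLP-1 peptide, from duplicates, was Hill-fitted to give EC50.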

[2] = Rat pharmacokinetics, intravenous dosing; format: in vivo, Sprague-Dawley rats; conditions: male, Sprague-Dawley, IV bolus dosing at 3.0 mg/kg, plasma
Protocol: Intravenous dosing: Compounds were formulated at 1.0 mg/mL in a solution comprising 5% polyethylene glycol 400 and 95% (12% (w/v) sulfobutyl-β-cyclodextrin in water) (v/v). Formulated compounds were sterile filtered through a 0.22 micron filter before dosing. Compounds were administered to male, 7-11-week-old Sprague-Dawley rats by jugular vein cannula infusion over 30 minutes at a dose of 1 mg/kg. Oral dosing: Compounds were formulated at 1.0 mg/mL in a solution comprising 5% polyethylene glycol 400 and 95% (12% (w/v) sulfobutyl-β-cyclodextrin in water) (v/v). Formulated compounds were administered to male, 7-11 week old Sprague-Dawley rats by oral gavage at a dose of 10 mg/kg or 3 mg/kg.
Sample collection: Blood collections of about 0.2 mL per time point were performed from jugular vein or other suitable site of each animal, into pre-chilled commercial EDTA-K2 tubes and placed on wet ice until centrifugation. Blood samples were processed for plasma by centrifugation at approximately 4° C., 3,200 g for 10 min. Plasma was collected and transferred into pre-labeled 96 well plate or polypropylene tubes, quick frozen over dry ice and kept at −60° C. or lower until
Data analysis: Plasma concentration versus time data was plotted in graph and analyzed by non-compartmental approaches using the Phoenix WinNonlin 6.3 software program. Related PK parameters were calculated according to dosing route, e.g., CL, Vdss and C0 for intravenous administration, Cmax, Tmax or % F for extravascular administration, and T1/2, AUC(0-t), AUC(0-inf), MRT(0-t), MRT(0-inf) for all routes.

T1 sequence (P43220 24-463): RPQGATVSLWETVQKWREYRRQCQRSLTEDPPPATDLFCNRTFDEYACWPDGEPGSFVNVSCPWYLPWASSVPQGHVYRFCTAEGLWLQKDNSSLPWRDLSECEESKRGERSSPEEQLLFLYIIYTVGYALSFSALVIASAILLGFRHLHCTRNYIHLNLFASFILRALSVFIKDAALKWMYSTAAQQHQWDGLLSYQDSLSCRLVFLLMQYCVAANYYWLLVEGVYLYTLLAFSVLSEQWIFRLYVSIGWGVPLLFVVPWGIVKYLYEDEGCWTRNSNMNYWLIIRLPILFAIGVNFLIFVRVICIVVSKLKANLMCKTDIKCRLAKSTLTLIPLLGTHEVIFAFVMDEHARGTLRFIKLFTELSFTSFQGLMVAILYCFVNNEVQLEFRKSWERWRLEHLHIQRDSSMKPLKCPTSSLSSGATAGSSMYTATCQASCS

EC50 [1] [nM] | Emax [1] [%] | AUC [2] [ng·h/mL] | C0 [2] [ng/mL] | half-life ([2]; read-out: Rat T1/2) [h] | SMILES
< 10 | > 85 | < 500 | > 2000 | < 1.5 | COc1cc(C(=O)O)cc2c1nc(CN1CCC(c3cccc(OCc4ccc(C#N)cc4F)n3)CC1)n2Cc1cncs1 [Compound 1, 2-((4-(6-((4-Cyano-2-fluorobenzyl)oxy)pyridin-2-yl)piperidin-1-yl)methyl)-4-methoxy-1-(thiazol-5-ylmethyl)-1H-benzo[d]imidazole-6-carboxylic acid]
< 10 | > 85 | – | – | – | COc1cc(C(=O)O)cc2c1nc(CN1CCC(c3cccc(OCc4ccc(C#N)cc4F)n3)CC1)n2C[C@@H]1CCO1 [Compound 8, (S)-2-((4-(6-((4-Cyano-2-fluorobenzyl)oxy)pyridin-2-yl)piperidin-1-yl)methyl)-4-methoxy-1-(oxetan-2-ylmethyl)-1H-benzo[d]imidazole-6-carboxylic acid]
